Legend:
purified human HDAC6 = biological target: T1, purified human HDAC6 (Homo sapiens, UniProt Q9UBN7); experiment: HDAC6 Enzyme Assay; format: biochemical; settings: HDAC6, 0.37 μM concentration; read-out: Percentage Inhibition (%)
T1 construct: purchased BPS Bioscience 5006
T1 sequence (Q9UBN7 1-1215): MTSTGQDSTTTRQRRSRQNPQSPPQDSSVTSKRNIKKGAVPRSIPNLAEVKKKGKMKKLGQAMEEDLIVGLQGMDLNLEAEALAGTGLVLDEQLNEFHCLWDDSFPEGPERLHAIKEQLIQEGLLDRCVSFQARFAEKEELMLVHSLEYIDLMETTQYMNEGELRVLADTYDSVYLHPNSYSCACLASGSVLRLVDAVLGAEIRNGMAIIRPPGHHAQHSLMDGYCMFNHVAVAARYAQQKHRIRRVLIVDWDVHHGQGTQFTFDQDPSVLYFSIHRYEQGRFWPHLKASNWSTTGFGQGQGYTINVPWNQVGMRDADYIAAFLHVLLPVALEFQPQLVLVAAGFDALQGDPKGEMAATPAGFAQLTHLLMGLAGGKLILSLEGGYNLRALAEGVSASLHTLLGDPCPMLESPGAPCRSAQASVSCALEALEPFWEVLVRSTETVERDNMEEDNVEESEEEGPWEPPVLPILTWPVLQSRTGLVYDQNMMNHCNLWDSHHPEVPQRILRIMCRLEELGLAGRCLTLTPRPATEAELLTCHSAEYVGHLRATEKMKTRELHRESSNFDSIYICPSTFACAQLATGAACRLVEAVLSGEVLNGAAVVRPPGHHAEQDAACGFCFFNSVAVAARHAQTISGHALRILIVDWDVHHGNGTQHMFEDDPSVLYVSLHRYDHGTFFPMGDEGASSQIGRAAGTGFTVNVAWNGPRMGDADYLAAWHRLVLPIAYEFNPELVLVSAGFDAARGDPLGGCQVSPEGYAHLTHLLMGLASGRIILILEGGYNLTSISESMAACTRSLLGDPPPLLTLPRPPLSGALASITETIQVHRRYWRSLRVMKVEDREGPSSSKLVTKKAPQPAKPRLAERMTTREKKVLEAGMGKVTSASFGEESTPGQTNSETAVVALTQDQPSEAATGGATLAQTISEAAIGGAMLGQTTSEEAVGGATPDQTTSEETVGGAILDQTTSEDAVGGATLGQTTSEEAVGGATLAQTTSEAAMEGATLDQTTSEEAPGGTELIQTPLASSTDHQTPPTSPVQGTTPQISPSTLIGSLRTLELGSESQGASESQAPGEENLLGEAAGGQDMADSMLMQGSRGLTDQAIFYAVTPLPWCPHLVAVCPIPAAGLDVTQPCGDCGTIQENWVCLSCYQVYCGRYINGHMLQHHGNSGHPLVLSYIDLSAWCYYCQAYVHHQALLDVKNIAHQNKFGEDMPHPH
Experimental: To measure the inhibition of HDAC6 activity, purified human HDAC6 (BPS Bioscience; Cat. No. 5006) is incubated with substrate Ac-Arg-Gly-Lys(Ac)-AMC peptide (Bachem Biosciences; Cat. No. I-1925) for 1 hour at 30° C. in the presence of test compounds or vehicle DMSO control. The reaction is stopped with the HDAC inhibitor trichostatin A (Sigma; Cat. No. T8552) and the amount of Arg-Gly-Lys-AMC generated is quantitated by digestion with trypsin (Sigma; Cat. No. T1426) and subsequent measurement of the amount of AMC released using a fluorescent plate reader (Pherastar; BMG Technologies) set at Ex 340 nm and Em 460 nm. Concentration response curves are generated by calculating the fluorescence increase in test compound-treated samples relative to DMSO-treated controls, and percentage inhibition values at a single concentration or enzyme inhibition (IC50) values are determined from those curves. One skilled in the art will appreciate that the values generated either as percentage inhibition at a single concentration or IC50 values are subject to experimental variation.

[1] = Intrinsic Clearance in Microsomes (human); format: in vitro ADME; settings: liver microsomes, pH 7.4, 2 μM test compound, read-out: In Vitro Microsomal Intrinsic Clearance, Human CL int
Experimental: (§1) The following reagents and stock solutions are required for determination of microsomal clearance.
(§2) • 1. 0.1 M potassium phosphate buffer, pH 7.4: • Stock A (1.0 M): 136.5 g of monobasic potassium phosphate (Sigma #P5379) in 1 L of nanopure water. • Stock B (1.0 M): 174.2 g of dibasic potassium phosphate (Sigma #P8281) in 1 L of nanopure water. • Mix 40.5 mL of stock B+9.5 mL of stock A, adjust pH with monobasic potassium phosphate, qs to 500 mL with nanopure water to give 0.1M potassium phosphate buffer, pH 7.4. • 2. […] NADPH: β-nicotinamide adenine dinucleotide phosphate, reduced form (Sigma #N1630) • 4. UDPGA: Uridine 5′-Diphosphote Glucuronic Acid, Triamnonium salt (Sigma #U-5625) • 5. Alamethicin (Sigma #A-4665-25) • 6. MgCl2: Magnesium chloride (Sigma #M8266) • 7. DMSO: Dimethyl sulfoxide (Sigma #D4540) • 8. 7EC: 7-Ethoxycoumarine (Sigma #E1379), positive control. • 9. Carbutamide (Aldrich cat #38157-8), internal standard. Stock Solutions: • 1. 10 mM stock solution of test compound in DMSO • 200 μM test solution of test compound: 10 μL of 10 mM test compound stock solution+490 μL of 75% ACN/water • 2. 10 mM stock solution of 7-Ethoxycoumarin in DMSO (positive control) • 200 μM test solution of 7-Ethoxycoumarine: 10 μL of 10 mM 7EC stock solution+490 μL of 75% ACN/water. • 3. 10 mM carbutamide stock (internal standard): Dissolve 2.71 mg of carbutimide in 1 mL DMSO. • 1 μM carbutamide solution: 100 μL of 10 mM stock solution in • 1 L of acetonitrile, store at 4° C. • 4. 3 mM MgCl2 in 0.1 M K-phosphate buffer: • Dissolve 28.5 mg of anhydrous MgCl2 in 100 mL of 0.1 M K-phosphate buffer, pH 7.4. • 5. 4× Stock Solution of Cofactors Mixture
(§3) 16 mM NADPH in 0.1 M K-phosphate buffer, pH 7.4 containing MgCl2.
(§4) 20 mM UDPGA in 0.1 M K-phosphate buffer, pH 7.4 containing MgCl2
(§5) Aliquot equal volume of stock solution of NADPH and UDPGA to make the final stock solution of cofactor mixture as follows:
(§6) 10 mM UDPGA • 6. Add 1.25 mL of methanol directly to the bottle of alamethicin. Invert 10 times to dissolve the alamethicin. This yields a 20 mg/ml solution of alamethicin. […]

[2] = Intrinsic Clearance in Microsomes (dog); format: in vitro ADME; settings: liver microsomes, pH 7.4, 2 μM test compound, read-out: In Vitro Microsomal Intrinsic Clearance, Dog CL int (converted)
Experimental: as §1, §2, §3, §4, §5, §6

[3] = Intrinsic Clearance in Microsomes (rat); format: in vitro ADME; settings: liver microsomes, pH 7.4, 2 μM test compound, read-out: In Vitro Microsomal Intrinsic Clearance, Rat CL int (converted)
Experimental: as §1, §2, §3, §4, §5, §6

| Compound | inhibition at 0.37 µM (purified human HDAC6) [%] | CLint scaled at 2 µM [1] [mL/min/kg] | CLint scaled at 2 µM [2] [mL/min/kg] | CLint scaled at 2 µM [3] [mL/min/kg] |
| --- | --- | --- | --- | --- |
| CC1(C(=O)N2CCc3cc(C(=O)NO)ccc3C2)CCNCC1 [Compound I-1, N-hydroxy-2-[(4-methylpiperidin-4-yl)carbonyl]-1,2,3,4-tetrahydroisoquinoline-6-carboxamide] | 79.7 | < 6.33 | < 7.83 | < 14.2 |
| CCN1CCC(C)(C(=O)N2CCc3cc(C(=O)NO)ccc3C2)CC1 [Compound I-2, 2-[(1-ethyl-4-methylpiperidin-4-yl)carbonyl]-N-hydroxy-1,2,3,4-tetrahydroisoquinoline-6-carboxamide] | 78.3 | < 6.33 | < 7.83 | < 14.2 |
| O=C(NO)c1ccc2c(c1)CCN(Cc1ccc(C3CCNCC3)cc1)C2 [Compound I-3, N-hydroxy-2-(4-piperidin-4-ylbenzyl)-1,2,3,4-tetrahydroisoquinoline-6-carboxamide] | 80.7 |  |  |  |
| CC1(C(=O)Nc2ccc(CN3CCc4cc(C(=O)NO)ccc4C3)cc2)CCNCC1 [Compound I-4, N-hydroxy-2-(4-{[(4-methylpiperidin-4-yl)carbonyl]amino}benzyl)-1,2,3,4-tetrahydroisoquinoline-6-carboxamide] | 72.2 |  |  |  |
| CC(C)(C)OC(=O)N1CCC(c2ccc(CN3CCc4cc(C(=O)NO)ccc4C3)cc2)CC1 [Compound I-5, tert-butyl 4-(4-{[6-[(hydroxyamino)carbonyl]-3,4-dihydroisoquinolin-2(1H)-yl]methyl}phenyl)piperidine-1-carboxylate] | 46.2 |  |  |  |
| CC(C)(C)OC(=O)N1CCC(C)(C(=O)Nc2ccc(CN3CCc4cc(C(=O)NO)ccc4C3)cc2)CC1 [Compound I-6, tert-butyl 4-{[(4-{[6-[(hydroxyamino)carbonyl]-3,4-dihydroisoquinolin-2(1H)-yl]methyl}phenyl)amino]carbonyl}-4-methylpiperidine-1-carboxylate] | 61 |  |  |  |
| CC(C)(C)OC(=O)N1CCC(C)(C(=O)N2CCc3cc(C(=O)NO)ccc3C2)CC1 [Compound I-13, tert-butyl 4-{[6-[(hydroxyamino)carbonyl]-3,4-dihydroisoquinolin-2(1H)-yl]carbonyl}-4-methylpiperidine-1-carboxylate] | 88.8 | < 6.33 | 31.7 | 46.7 |

— patent US8778931B2, “Substituted hydroxamic acids and uses thereof” (Millennium Pharmaceuticals, Inc., priority 2010, dated 2014)
